Experimental data as given in article PMC9322122, “Development of (4-Phenylamino)quinazoline Alkylthiourea Derivatives as Novel NF-κB Inhibitors” (Pharmaceuticals, 2022).

Legend:
NF-κB = NF-κB luciferase reporter assay; format: cell-based; settings: Homo sapiens, NF-κB-luciferase-transfected HEK293 cells, TNFα 50 ng/mL; for inhibition at 10 µM: mean ± SEM, n = 3, read-out: NF-κB Luciferase Activity Inh %
Protocol: NF-κB Luciferase Reporter Vector was purchased from Signosis (Santa Clara, CA, USA) and transfected into HEK-293 cells using FuGENE HD (Promega, Fitchburg, MA, USA) following the manufacturer’s protocol. The transfected cells were incubated in serum-free DMEM for 16 h and then treated with DMSO or indicated compounds. After 3 h, cells were treated with or without 50 ng/mL of Recombinant Human TNFα Protein (R&D systems, Minneapolis, MN, USA) for another 3 h. The protein lysates were analyzed using Steady-Glo® Luciferase Assay System (Promega, Fitchburg, MA, USA) and TECAN Infinite 200 pro (Männedorf, Switzerland).

[1] = Cell viability (WST-1), HEK293; format: cell-based; settings: human, HEK293 cells, mean ± SEM, n = 3
Protocol: (§1) Cells were incubated with the WST-1 reagent (Thermo Fisher Scientific, Waltham, MA, USA) at 37 °C for 2 h. The cell viability was determined by spectrophotometer at 450 nm.

[2] = Cell viability (WST-1), A549; format: cell-based; settings: human, A549 cells, mean ± SEM, n = 3
Protocol: as §1

Recombinant EGFR kinase = Recombinant EGFR kinase (Homo sapiens, UniProt P00533); experiment: Recombinant EGFR kinase activity; format: biochemical; settings: read-out: Recombinant EGFR Kinase Activity (%inh at 150 nM)
Sequence of Recombinant EGFR kinase (P00533 25-1210): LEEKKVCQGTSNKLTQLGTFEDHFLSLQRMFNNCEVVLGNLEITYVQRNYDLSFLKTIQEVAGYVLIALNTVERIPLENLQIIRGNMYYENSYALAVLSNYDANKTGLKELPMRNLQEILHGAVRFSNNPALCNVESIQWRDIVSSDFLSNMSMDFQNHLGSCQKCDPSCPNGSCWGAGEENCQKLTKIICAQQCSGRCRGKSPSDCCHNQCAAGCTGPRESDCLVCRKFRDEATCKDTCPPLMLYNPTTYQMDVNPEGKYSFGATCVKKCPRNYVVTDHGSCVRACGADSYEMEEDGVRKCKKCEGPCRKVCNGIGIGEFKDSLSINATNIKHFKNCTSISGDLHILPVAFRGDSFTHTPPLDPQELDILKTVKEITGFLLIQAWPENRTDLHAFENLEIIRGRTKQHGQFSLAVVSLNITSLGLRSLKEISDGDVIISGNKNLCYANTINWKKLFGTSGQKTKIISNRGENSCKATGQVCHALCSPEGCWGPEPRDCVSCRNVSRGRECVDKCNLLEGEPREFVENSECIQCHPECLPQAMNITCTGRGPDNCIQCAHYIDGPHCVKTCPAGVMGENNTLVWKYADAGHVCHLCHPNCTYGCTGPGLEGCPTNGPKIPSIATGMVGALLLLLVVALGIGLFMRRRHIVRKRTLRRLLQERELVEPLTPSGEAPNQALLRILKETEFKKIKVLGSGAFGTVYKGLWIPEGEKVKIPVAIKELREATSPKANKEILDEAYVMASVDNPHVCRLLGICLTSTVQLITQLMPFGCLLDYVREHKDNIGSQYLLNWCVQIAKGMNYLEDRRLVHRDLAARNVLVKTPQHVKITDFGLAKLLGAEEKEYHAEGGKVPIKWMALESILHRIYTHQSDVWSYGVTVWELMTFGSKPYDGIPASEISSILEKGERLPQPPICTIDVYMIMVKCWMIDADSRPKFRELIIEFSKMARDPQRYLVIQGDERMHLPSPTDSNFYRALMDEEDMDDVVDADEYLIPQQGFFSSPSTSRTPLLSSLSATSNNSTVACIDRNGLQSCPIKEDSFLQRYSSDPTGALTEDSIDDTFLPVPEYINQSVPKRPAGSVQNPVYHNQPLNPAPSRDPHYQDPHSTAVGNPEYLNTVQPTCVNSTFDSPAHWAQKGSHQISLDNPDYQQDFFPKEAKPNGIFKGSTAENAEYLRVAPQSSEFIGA

TNFα production = TNFα production in LPS-activated dTHP-1 cells (ELISA); format: cell-based; settings: Homo sapiens; for inhibition at 7.5 µM / inhibition at 15 µM: LPS 100 ng/mL for 24 h, dTHP-1 cells; for inhibition at 7.5 µM: read-out: TNFα Production Inh % (7.5 μM); for inhibition at 15 µM: read-out: TNFα Production Inh % (15 μM); for IC50: LPS-activated dTHP-1 cells, 24 h
Protocol: (§2) The HEK-293 (ATCC Cat# CRL-1573, RRID:CVCL_0045) and human monocytic THP−1 cells (ATCC Cat# TIB-202, RRID:CVCL_0006) were, respectively, cultured in DMEM and RPMI 1640 media supplemented with 10% fetal bovine serum, 2 mM L-glutamine, and 1× Antibiotic-Antimycotic at 37 °C in a humidified incubator with 5% CO2. THP−1 cells were differentiated by 100 nM phorbol-12-myristate-13-acetate (PMA) for 4 h and then rested for 44 h as dTHP−1 cells.
(§3) The dTHP−1 cells were treated with indicated compounds for 3 h and then activated with or without 100 ng/mL lipopolysaccharide (LPS; E. coli 0111:B4) for another 24 h. The levels of human IL-6 and TNFα in supernatants were measured by DuoSet® ELISA Development System (R&D systems, Minneapolis, MN, USA) according to the manufacturer’s protocol.

dTHP−1 cells = experiment: Cell viability of dTHP-1 cells with or without LPS; format: cell-based, human; settings: in % (unit assumed); for Cell viability of dTHP-1 cells, 5 μM, LPS / Cell viability of dTHP-1 cells, 5 μM, without LPS: 5 μM (so in the source); for Cell viability of dTHP-1 cells, 5 μM, LPS / Cell viability of dTHP-1 cells, 7.5 μM, LPS: LPS 100 ng/mL for 24 h; for Cell viability of dTHP-1 cells, 5 μM, without LPS / Cell viability of dTHP-1 cells, 7.5 μM, without LPS: no LPS
Protocol: as §2, §1, §3

IL-6 production = IL-6 production in LPS-activated dTHP-1 cells (ELISA); format: cell-based, human; settings: Homo sapiens; for inhibition at 7.5 µM / inhibition at 15 µM: LPS 100 ng/mL for 24 h, dTHP-1 cells; for inhibition at 7.5 µM: read-out: IL-6 Production Inh % (7.5 μM); for inhibition at 15 µM: read-out: IL-6 Production Inh % (15 μM); for IC50: LPS-activated dTHP-1 cells, 24 h
Protocol: as §2, §3

Compound	inhibition at 10 µM (NF-κB)	IC50 (NF-κB)	viability at 10 µM [1]	melting point	viability at 10 µM [2]	inhibition at 0.15 µM (Recombinant EGFR kinase)	inhibition at 7.5 µM (TNFα production)	inhibition at 15 µM (TNFα production)	IC50 (TNFα production)	Cell viability of dTHP-1 cells, 5 μM, LPS (dTHP−1 cells)	Cell viability of dTHP-1 cells, 5 μM, without LPS (dTHP−1 cells)	Cell viability of dTHP-1 cells, 7.5 μM, LPS (dTHP−1 cells)	Cell viability of dTHP-1 cells, 7.5 μM, without LPS (dTHP−1 cells)	inhibition at 7.5 µM (IL-6 production)	inhibition at 15 µM (IL-6 production)	IC50 (IL-6 production)
O=C(NC(=O)c1ccccc1)Nc1ccc2ncnc(Nc3cccc(Cl)c3)c2c1 [Compound 15, N-((4-((3-Chlorophenyl)amino)quinazolin-6-yl)carbamoyl)benzamide]	48.3 ± 9.3%	> 10 µM	114 ± 2.6%	252.4 to 254 °C	100 ± 4.5%	26%	–	–	–	–	–	–	–	–	–	–
O=C(NCc1cccc(F)c1)Nc1ccc2ncnc(Nc3cccc(Cl)c3)c2c1 [Compound 13, 1-(4-((3-Chlorophenyl)amino)quinazolin-6-yl)-3-(3-fluorobenzyl)urea]	53.3 ± 10%	8.1 µM	95.5 ± 6.1%	210.8 to 212 °C	104 ± 5%	23.3%	–	–	–	–	–	–	–	–	–	–
CC(C)(C)NC(=S)Nc1ccc2ncnc(Nc3cccc(Cl)c3)c2c1 [Compound 20, 1-(tert-Butyl)-3-(4-((3-chlorophenyl)amino)quinazolin-6-yl)thiourea]	75.7 ± 3.1%	2 µM	99.7 ± 8%	177.5 to 179.4 °C	98.1 ± 3.1%	1.5%	57.4 ± 7.2%	89.9 ± 0.88%	5.1 ± 0.43 µM	12.5 ± 0.23	42.5 ± 10.6	32.5 ± 0.89	78.0 ± 0.09	91.8 ± 3.5%	98.7 ± 1.2%	0.94 ± 0.11 µM
C#Cc1cccc(Nc2ncnc3ccc(NC(=O)NCc4cccc(Cl)c4)cc23)c1 [Compound 14, 1-(3-Chlorobenzyl)-3-(4-((3-ethynylphenyl)amino)quinazolin-6-yl)urea]	58.5 ± 0.9%	8 µM	110 ± 2.7%	222.4 to 228.8 °C	98.6 ± 3%	44.5%	–	–	–	–	–	–	–	–	–	–
S=C(NCc1cccnc1)Nc1ccc2ncnc(Nc3cccc(Cl)c3)c2c1 [Compound 11, 1-(4-((3-Chlorophenyl)amino)quinazolin-6-yl)-3-(pyridin-3-ylmethyl)thiourea]	44.7 ± 5.8%	> 10 µM	62.8 ± 4%	205.6 to 207.9 °C	98.9 ± 4.1%	66%	–	–	–	–	–	–	–	–	–	–
S=C(NCC1CC1)Nc1ccc2ncnc(Nc3cccc(Cl)c3)c2c1 [Compound 18, 1-(4-((3-Chlorophenyl)amino)quinazolin-6-yl)-3-(cyclopropylmethyl)thiourea]	89.9 ± 1.5%	2.8 µM	75.7 ± 3.8%	226.3 to 228 °C	79.1 ± 0.6%	59%	31 ± 4.5%	65.9 ± 7.9%	11.5 ± 1.7 µM	11.2 ± 3.3	87.6 ± 2.5	34.9 ± 1.6	82.7 ± 10.3	78.9 ± 14.8%	89.4 ± 7%	1.1 ± 0.36 µM
FC(F)(F)c1ccc(CNC(=S)Nc2ccc3ncnc(Nc4cccc(Cl)c4)c3c2)cc1 [Compound 3, 1-(4-((3-Chlorophenyl)amino)quinazolin-6-yl)-3-(4-(trifluoromethyl)benzyl)thiourea]	46.5 ± 4.9%	> 10 µM	68.9 ± 6.4%	165 to 167 °C	73.4 ± 4.3%	70%	–	–	–	–	–	–	–	–	–	–
S=C(NCc1cccs1)Nc1ccc2ncnc(Nc3cccc(Cl)c3)c2c1 [Compound 9, 1-(4-((3-Chlorophenyl)amino)quinazolin-6-yl)-3-(thiophen-2-yl-methyl)thiourea]	98 ± 0.4%	2.8 µM	13.9 ± 0.7%	178.8 to 180.7 °C	50.7 ± 2.4%	69.8%	–	–	–	–	–	–	–	–	–	–
